Experimental findings from patent US6432405B1, “Method of inhibiting HIV infection with CD44 and anti-CD44 antibodies” (Duke University, priority 1991, dated 2002) are described below.

Entries after “also recorded” stand apart in the source; their conditions may differ.

The test system of test [1] is HIV-1Ba.L. The experiment in a line: HIV-1 infection of human monocytes in vitro (cytopathology/polykaryon formation, supernatant reverse transcriptase). The test is classed as cell-based. To be noted: for effect on HIV-1-induced cytopathology and supernatant RT (in words): human monocytes inoculated with HIV-1Ba.L, three weeks of culture. The text has this: This aspect of the present invention provides a new method, based on a separate molecular pathway, of blocking HIV infection. The invention is based, at least in part, on Applicants' observation that CD44 (the hyaluronate receptor) facilitates HIV infection/expression in human cells. When this molecule is “blocked”by binding to the anti-CD44 antibody […] or AlG3, there is a 40-80% reduction of HIV infection/expression in normal human monocytes in vitro, as determined by inhibition of monocyte polykaryon formation and expression of viral reverse transcriptase in supernatant medium. […] To determine the importance of other monocyte cellular surface molecules in in vitro infection with HIV-1, the abilities of various murine monoclonal antibodies directed toward different monocyte membrane antigens to influence HIV-1 infection of human monocytes in vitro were determined. Monocytes from normal people were isolated by density gradients, adherence, and washing. Cells were inoculated with HIV-1Ba.L. […] three weeks of culture for reverse transcriptase (RT) activity, and the plates were examined morphologically. Antibodies AlG3 and […]

In test [2] the test system is PBMC (T cells). Nature of the test: T cell activation assay: CD2 mAb-stimulated PBMC proliferation. The class given is cell-based, human. As to conditions: compared to the results with CD44 liposomes; data not shown. As to the method: CD44 (A3D8) and control YgGl (P3X63/Ag8) antibodies were conjugated to CNBr-activated SEPHAROSE CL 4B (Pharmacia, Piscataway, N.J.) (3.0 mg IgG/ml gel). HuT 78 T Cell (CD44+) lysate was solubilized from 5×10^9 cells in 50 ml buffer (300 mM NaCl, 10 mM Na2HPO4 pH 7.4, 0.2% NaN3w/v 0.5% NP-40 v/v), 0.01% Tween 80 w/v, 0.2 mM phenylmethylsulfonyl fluoride, and 0.1 mM tosyl L-lysine chloromethyl ketone) (0° C.×30 min), centrifuged (4° C. 3000×g×15 min, 23420 ×g×30 min) filtered, precleared×2 over a P3-SEPHAROSE column, and allowed to bind overnight (4° C.) to A3D8-SEPHAROSE. The column was washed with 5 column volumes equilibration buffer, followed by 5 column volumes of 50 mM Tris, pH 7.4, 0.5% NP-40. NP-40 was exchanged for octyl glucoside (OG) (Sigma, St. Louis, Mo.) by washing with 2 column volumes 50 mM Tris pH 7.4, 1.5% OG w/v. […]
Liposomes were prepared by the method of Mimms et al ((1981) Biochemistry 20:833-840), using 1 μM purified CD44 or control glycophorin protein, 1 nM L-α-dioleoyl lecthin (Avanti Polar Lipids, Birmingham, Ala.), and 240 nM OG. Liposomes were analyzed for content of the appropriate protein using a novel labelling technique and flow cytometry. […] Fluoresceinated liposome-bead conjugates were then analyzed by flow cytometry. […]

hyaluronic acid [hyaluronate]: in test [1], the “effect on HIV-1-induced cytopathology and supernatant RT (in words)” value is “diminished morphological changes and RT expression”. Moreover, the “reduction/inhibition of HIV infection/expression” value in test [1] (normal human monocytes in vitro, by inhibition of monocyte polykaryon formation and viral reverse transcriptase in supernatant medium) is recorded as “up to 85%”.

Consider Chondroitin sulfate, for which the “effect on HIV-1-induced cytopathology and supernatant RT (in words)” value in test [1] is on record as “no effect; also recorded: no or minimal inhibitory activity”.

Consider “soluble, free CD44 protein: CD44 protein affinity-purified from HuT 78 T cell lysate on A3D8-Sepharose, 80-85 kD”, for which the “effect on CD2 stimulated PBMC cultures (in words)” value in test [2] was “Identical results”.
